Assay results from PubChem BioAssay (NCI).
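A five-concentration, 48-hour dose response in 96-well plates underlies each endpoint, interpolated linearly between surrounding concentrations. GI50: concentration for 50% inhibition of growth. TGI: total growth inhibition.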

Tests used:
Assay in all cases: NCI anticancer screen, dose series, 48 h
[1] = tested on: CAKI-1 renal
[2] = tested on: NCI-H460 lung
[3] = tested on: SF-539 CNS
[4] = tested on: LOX IMVI melanoma
[5] = tested on: NCI-H23 lung
[6] = tested on: COLO 205 colon
[7] = tested on: BT-549 breast
[8] = tested on: NCI-H522 lung
[9] = tested on: MOLT-4 leukemia
[10] = tested on: HOP-92 NSCLC
[11] = tested on: MDA-MB-435
[12] = tested on: OVCAR-5 ovarian
[13] = tested on: OVCAR-8 ovarian
[14] = tested on: UACC-62 melanoma
[15] = tested on: MDA-MB-231 breast
[16] = tested on: SK-MEL-28 melanoma
[17] = tested on: PC-3 prostate
[18] = tested on: UO-31 renal
[19] = tested on: SK-MEL-2 melanoma
[20] = tested on: SN12C renal
[21] = tested on: SNB-75 CNS
[22] = tested on: UACC-257 melanoma
[23] = tested on: CCRF-CEM leukemia
[24] = tested on: MALME-3M melanoma
[25] = tested on: OVCAR-3 ovarian
[26] = tested on: HOP-62 NSCLC
[27] = tested on: OVCAR-4 ovarian
[28] = tested on: HS 578T breast
[29] = tested on: NCI-H226 lung
[30] = tested on: NCI/ADR-RES ovarian
[31] = tested on: KM12 colon
[32] = tested on: HCT-116 colon
[33] = tested on: M14 melanoma
[34] = tested on: SK-OV-3 ovarian
[35] = tested on: SK-MEL-5 melanoma
[36] = tested on: SF-295 CNS
[37] = tested on: 786-0 renal
[38] = tested on: HT29 colon
[39] = tested on: HL-60(TB) leukemia
[40] = tested on: T-47D breast
[41] = tested on: A498 renal
[42] = tested on: U251 CNS
[43] = tested on: A549 NSCLC
[44] = tested on: RPMI-8226 leukemia
[45] = tested on: ACHN renal
[46] = tested on: EKVX NSCLC
[47] = tested on: SR leukemia
[48] = tested on: SF-268 CNS
[49] = tested on: SNB-19 CNS
[50] = tested on: TK-10 renal
[51] = tested on: IGROV1 ovarian
[52] = tested on: HCC-2998 colon
[53] = tested on: K-562 leukemia
[54] = tested on: SW-620 colon
[55] = tested on: DU-145 prostate
[56] = tested on: HCT-15 colon
[57] = tested on: RXF 393 renal

SMILES: C=C1C(=O)O[C@H]2[C@H]1CC/C(COC(=O)NCc1[nH]nc3ccccc13)=C\CC[C@@]1(C)O[C@@H]21
- GI50 [1]: 1.37 µM
- TGI [1]: 3.91 µM
- GI50 [2]: 3.9 µM
- TGI [2]: 15.5 µM
- GI50 [3]: 1.82 µM
- TGI [3]: 4.72 µM
- GI50 [4]: 1.05 µM
- TGI [4]: 2.43 µM
- GI50 [5]: 2.19 µM
- TGI [5]: 7.24 µM
- GI50 [6]: 1.27 µM
- TGI [6]: 2.93 µM
- GI50 [7]: 2.86 µM
- TGI [7]: 8.93 µM
- GI50 [8]: 1.21 µM
- TGI [8]: 2.65 µM
- GI50 [9]: 1.71 µM
- TGI [9]: 5.97 µM
- GI50 [10]: 2.03 µM
- TGI [10]: 4.11 µM
- GI50 [11]: 1.64 µM
- TGI [11]: 4.42 µM
- GI50 [12]: 2.59 µM
- TGI [12]: 6.14 µM
- GI50 [13]: 2.67 µM
- TGI [13]: 12.3 µM
- GI50 [14]: 1.56 µM
- TGI [14]: 3.67 µM
- GI50 [15]: 1.64 µM
- TGI [15]: 3.34 µM
- GI50 [16]: 1.69 µM
- TGI [16]: 3.7 µM
- GI50 [17]: 1.67 µM
- TGI [17]: 5.79 µM
- GI50 [18]: 1.51 µM
- TGI [18]: 2.95 µM
- GI50 [19]: 4.11 µM
- TGI [19]: 15.5 µM
- GI50 [20]: 1.68 µM
- TGI [20]: 4.64 µM
- GI50 [21]: 5.06 µM
- TGI [21]: 21.1 µM
- GI50 [22]: 2.13 µM
- TGI [22]: 5.01 µM
- GI50 [23]: 0.337 µM
- TGI [23]: 2.51 µM
- GI50 [24]: 2.06 µM
- TGI [24]: 4.24 µM
- GI50 [25]: 1.06 µM
- TGI [25]: 2.38 µM
- GI50 [26]: 9.72 µM
- TGI [26]: 23.4 µM
- GI50 [27]: 4.06 µM
- TGI [27]: 17.5 µM
- GI50 [28]: 4.35 µM
- TGI [28]: 27.1 µM
- GI50 [29]: 16.3 µM
- TGI [29]: 33.7 µM
- GI50 [30]: 6.22 µM
- TGI [30]: 22.5 µM
- GI50 [31]: 4.25 µM
- TGI [31]: 18.1 µM
- GI50 [32]: 0.839 µM
- TGI [32]: 2.53 µM
- GI50 [33]: 2.03 µM
- TGI [33]: 5.49 µM
- GI50 [34]: 11.8 µM
- TGI [34]: 24.4 µM
- GI50 [35]: 2.73 µM
- TGI [35]: 10.5 µM
- GI50 [36]: 7.24 µM
- TGI [36]: 21.8 µM
- GI50 [37]: 1.72 µM
- TGI [37]: 3.63 µM
- GI50 [38]: 1.18 µM
- TGI [38]: 2.69 µM
- GI50 [39]: 0.458 µM
- TGI [39]: 2.73 µM
- GI50 [40]: 1.74 µM
- TGI [40]: 5.43 µM
- GI50 [41]: 12.6 µM
- TGI [41]: 26.3 µM
- GI50 [42]: 3.16 µM
- TGI [42]: 13.7 µM
- GI50 [43]: 8.61 µM
- TGI [43]: 25.7 µM
- GI50 [44]: 0.437 µM
- TGI [44]: 2.98 µM
- GI50 [45]: 1.11 µM
- TGI [45]: 2.63 µM
- GI50 [46]: 3.1 µM
- TGI [46]: 13.4 µM
- GI50 [47]: 0.27 µM
- TGI [47]: 2.89 µM
- GI50 [48]: 5.52 µM
- TGI [48]: 20 µM
- GI50 [49]: 5.31 µM
- TGI [49]: 19.6 µM
- GI50 [50]: 1.82 µM
- TGI [50]: 3.49 µM
- GI50 [51]: 2.24 µM
- TGI [51]: 9.26 µM
- GI50 [52]: 2.78 µM
- TGI [52]: 8.97 µM
- GI50 [53]: 0.473 µM
- TGI [53]: 17.5 µM
- GI50 [54]: 0.596 µM
- TGI [54]: 2.28 µM
- GI50 [55]: 1.24 µM
- TGI [55]: 3.03 µM
- GI50 [56]: 1.07 µM
- TGI [56]: 2.64 µM
- GI50 [57]: 0.719 µM
- TGI [57]: 2.23 µM

SMILES: CC1=C(C(=O)Nc2ccc(Cl)c(Cl)c2)C(c2ccccc2Cl)NC(=S)N1 (stereo not drawn)
- GI50 [1]: 9.85 µM
- TGI [1]: 21.5 µM
- GI50 [2]: 6.58 µM
- TGI [2]: 13.7 µM
- GI50 [4]: > 50 µM
- TGI [4]: > 50 µM
- GI50 [6]: 8.01 µM
- TGI [6]: 22.2 µM
- GI50 [7]: 39.4 µM
- TGI [7]: > 50 µM
- GI50 [8]: 13.6 µM
- TGI [8]: 24.9 µM
- GI50 [9]: 8.92 µM
- TGI [9]: > 50 µM
- GI50 [10]: 1.15 µM
- TGI [10]: 9.02 µM
- GI50 [11]: 8.08 µM
- TGI [11]: 16.2 µM
- GI50 [12]: 13.6 µM
- TGI [12]: 41.9 µM
- GI50 [14]: 8.01 µM
- TGI [14]: 18.9 µM
- GI50 [15]: 7.15 µM
- TGI [15]: 17.3 µM
- GI50 [17]: 8.08 µM
- TGI [17]: 23.3 µM
- GI50 [18]: 8.06 µM
- TGI [18]: 16.7 µM
- GI50 [19]: 14.6 µM
- TGI [19]: 25.2 µM
- GI50 [20]: 8.53 µM
- TGI [20]: 15.8 µM
- GI50 [21]: 5.48 µM
- TGI [21]: 29.2 µM
- GI50 [22]: 14.5 µM
- TGI [22]: 26.8 µM
- GI50 [25]: 10.5 µM
- TGI [25]: 20.6 µM
- GI50 [26]: 12.4 µM
- TGI [26]: 22.7 µM
- GI50 [27]: 23.6 µM
- TGI [27]: > 50 µM
- GI50 [28]: 6.38 µM
- TGI [28]: 13.9 µM
- GI50 [29]: 10.1 µM
- TGI [29]: 25.7 µM
- GI50 [30]: 9.62 µM
- TGI [30]: 19.7 µM
- GI50 [31]: 8.71 µM
- TGI [31]: 17.6 µM
- GI50 [32]: 6.23 µM
- TGI [32]: 12.5 µM
- GI50 [33]: 11.6 µM
- TGI [33]: 26.9 µM
- GI50 [34]: 12.5 µM
- TGI [34]: > 50 µM
- GI50 [35]: 7.96 µM
- TGI [35]: 15.1 µM
- GI50 [36]: 9.46 µM
- TGI [36]: 22 µM
- GI50 [37]: 10.2 µM
- TGI [37]: 20 µM
- GI50 [39]: 15.4 µM
- TGI [39]: > 50 µM
- GI50 [40]: 18.9 µM
- TGI [40]: > 50 µM
- GI50 [42]: 11.9 µM
- TGI [42]: 26.8 µM
- GI50 [43]: 24.1 µM
- TGI [43]: > 50 µM
- GI50 [44]: 4.18 µM
- TGI [44]: 24 µM
- GI50 [45]: 10.9 µM
- TGI [45]: 25.2 µM
- GI50 [46]: 9.09 µM
- TGI [46]: 19 µM
- GI50 [47]: 11.7 µM
- TGI [47]: > 50 µM
- GI50 [48]: 5.62 µM
- TGI [48]: 12.5 µM
- GI50 [49]: 0.695 µM
- TGI [49]: 12.8 µM
- GI50 [50]: 10.1 µM
- TGI [50]: 22.6 µM
- GI50 [51]: 22.5 µM
- TGI [51]: > 50 µM
- GI50 [53]: 11 µM
- TGI [53]: > 50 µM
- GI50 [54]: 10.8 µM
- TGI [54]: 24.4 µM
- GI50 [55]: 11.9 µM
- TGI [55]: > 50 µM
- GI50 [56]: 7.8 µM
- TGI [56]: 19 µM
